Test results reported in the NIST ThermoML archive (doi:10.1016/j.jct.2018.04.007).

Assays:
[1] = molar heat capacity at constant pressure; wn = mass fraction of the nth substance listed; conditions: 96.2 kPa, Liquid, DSC, w1 = 0.3
[2] = wn = mass fraction of the nth substance listed; conditions: 96.2 kPa, Liquid, w1 = 0.3; for viscosity: Cone and plate viscometry; for mass density: Pycnometric method; for thermal conductivity: transient hot wire

CC(O)CO (stereo unspecified) [1,2-propanediol] + O
Conditions	mass density, [2] [kg/m3]	molar heat capacity at constant pressure, [1] [J/K/mol]	thermal conductivity, [2] [W/m/K]	viscosity, [2] [mPa·s]
293.15 K	1023.1	89.44	0.443	3.02
303.15 K	1019.2	90	0.454	2.2
313.15 K	1014.5	90.52	0.463	1.61
323.15 K	1009	91.03	0.472	1.31
